Holding throughout (experiment): growth of human tumour cells (NCI), 48 h
For experiment [1], the system named is IGROV1 ovarian.
In experiment [2] the test system is CAKI-1 renal.
The subject of experiment [3] is 786-0 renal.
In experiment [4] the test system is ACHN renal.
The test system of experiment [5] is SK-MEL-5 melanoma.
Experiment [6] deals with HOP-62 NSCLC.
Experiment [7] deals with M14 melanoma.
For experiment [8], the system named is SW-620 colon.
For experiment [9], the system named is TK-10 renal.
Experiment [10] concerns UO-31 renal.

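Tested at 5 concentrations; 48 h exposure; 96-well plates; endpoints linearly interpolated, else capped at highest concentration. Abbreviation: GI50, concentration required for 50% inhibition of growth. TGI marks complete inhibition of growth.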

Consider `CCOC(=O)N1CCN(CCCCCOc2ccccc2C2CCCCC2)CC1`, for which the GI50 was 10.4 µM in experiment [1]; 3.23 µM in experiment [2]; 1.86 µM in [3]; 10.6 µM in experiment [4]; 1.52 µM in experiment [5]; 2.52 µM in [6]. Further, the figures for the GI50 in [7], in experiment [8] and in [9] were 2.98 µM, 3.08 µM and 7.99 µM, respectively. In addition, the TGI amounted to 23.1 µM in experiment [1]; 12.8 µM in experiment [2]; 3.78 µM in [3]; 23.8 µM in experiment [4]; 3.53 µM in [5]; 8.05 µM in experiment [6]. The TGI was 11 µM in experiment [7], 9.81 µM in experiment [8] and 21.7 µM in experiment [9].
As for `Cc1nc(-c2cccnc2)sc1C(=O)/C=C/c1cccc([N+](=O)[O-])c1`, the TGI in experiment [1], in [2], in experiment [10], in [3], in experiment [5] and in experiment [6] was > 100 µM throughout. The TGI in [8] and in [9] was > 100 µM in each case.
Consider `COc1cc(CNc2nc3ccc(C(F)(F)F)cc3nc2-c2ccccc2)cc(OC)c1OC`, for which the TGI in experiment [1] is > 100 µM; in [2] it was > 100 µM; in experiment [10], 55.6 µM; in [3], > 100 µM; in experiment [5], 87 µM; in [6], > 100 µM. In addition, the TGI in experiment [7], in [8] and in experiment [9] was > 100 µM throughout.
With `Clc1ccc2c(c1)N(c1ncnc3ccc(-c4cnc5[nH]ncc5c4)cc13)CC2`, the GI50 in experiment [1] was 0.11 µM; in [2], 0.316 µM; in experiment [10], 0.151 µM; in experiment [3] it was 0.689 µM; in [4], 0.317 µM; in experiment [6] it was 0.463 µM. The values for the GI50 in experiment [7] and in experiment [9] were 0.869 µM and 0.835 µM, respectively. Further, the TGI in [1] was 0.554 µM; in [2], > 100 µM; in [10], > 100 µM; in experiment [3], > 100 µM; in experiment [4], > 100 µM; in experiment [6], > 100 µM. Besides, the TGI in experiment [7] and in experiment [9] was > 100 µM in each case.
For the compound `O=C(Cl)C1=C(c2ccccc2)C1c1ccccc1` (stereo not given), the TGI in [1], in experiment [2], in experiment [3], in experiment [4], in experiment [5] and in experiment [6] was > 100 µM each time. The TGI in experiment [7], in experiment [8] and in experiment [9] was > 100 µM in each case.
In the case of `CC1(O)CCn2c(=O)c3cc4ccccc4cc3c(=O)n2C1O` (stereo not given), the TGI in experiment [1], in experiment [2], in experiment [3], in [4], in [5] and in [6] was > 100 µM throughout. In addition, the TGI in [8] and in experiment [9] was > 100 µM each time.
For the compound `Cc1c(C)c(CC(=O)N2CC2)c(C)c(C)c1CC(=O)N1CC1`, the TGI is 43.2 µM in experiment [1]; 32.4 µM in experiment [2]; 38.7 µM in experiment [10]; > 65.9 µM in experiment [3]; 25.7 µM in experiment [4]; 44.2 µM in experiment [6]. Also, the TGI in [7] is 18.9 µM; in experiment [8], > 57.2 µM; in experiment [9] it was > 83 µM.
Turning to `N.N.N.N.N.O=S(=O)([O-])S(=O)(=O)[O-].[Co+3]`, the GI50 in experiment [1], in experiment [10], in [3], in experiment [4], in [5] and in experiment [7] was > 100 µM each time. In addition, the GI50 in experiment [8] and in experiment [9] was > 100 µM in each case. Moreover, the TGI in [1], in experiment [10], in [3], in experiment [4], in [5] and in [7] was > 100 µM in each case. Moreover, the TGI in [8] and in experiment [9] was > 100 µM throughout.
In the case of `C=CC1=C(C)C2=NC1=CC1=NC(=CC3=C(C)C4=C(O)[C@H](C(=O)OC)C(=C5NC(=C2)[C@@H](C)[C@@H]5CCC(=O)O)C4=N3)C(CC)=C1C`, the TGI in experiment [1] is > 23.8 µM; in experiment [2], > 100 µM; in experiment [10], 11.7 µM; in experiment [3] it was > 28.2 µM; in experiment [4], 7.21 µM; in experiment [5] it was 3.75 µM. For the same compound, the TGI in experiment [6] was > 33.5 µM; in experiment [8] it was 10.8 µM; in experiment [9] it was 25.5 µM.
For the compound `CSc1ccc(N(C)c2nc(C)nc3c2CCC3)cc1`, the GI50 in experiment [1], in experiment [2], in experiment [3], in experiment [4], in experiment [6] and in experiment [8] was < 0.01 µM in each case. Moreover, the TGI is > 100 µM in experiment [1]; > 100 µM in experiment [2]; 50 µM in experiment [3]; > 100 µM in experiment [4]; 21.3 µM in [6]; > 100 µM in [8].
Turning to `CC1=NN(C(=O)c2ccncc2)C(=O)C1N=Nc1ccc(F)cc1` (stereo not given), the TGI in experiment [1], in [2], in experiment [10], in [3], in experiment [4] and in experiment [5] was > 100 µM throughout. Moreover, the TGI in [7], in experiment [8] and in experiment [9] was > 100 µM each time.
On to `Cc1ccccc1/C=C/C(=O)c1ccccc1`, for which the TGI in experiment [1] was 62.1 µM; in experiment [2] it was 37.2 µM; in experiment [10] it was 36.2 µM; in experiment [3], 29.9 µM; in [4], 32.8 µM; in experiment [5], > 10 µM. For the same compound, the values for the TGI in experiment [6], in experiment [7] and in [8] were 30.8 µM, 29.6 µM and > 10 µM, respectively.
Take `O=C1[C@H]2ON(c3ccccc3)C(c3ccco3)[C@H]2C(=O)N1c1ccc(Cc2ccc(N3C(=O)[C@@H]4ON(c5ccccc5)C(c5ccco5)[C@@H]4C3=O)cc2)cc1` (stereo not given in full): the TGI in [1], in experiment [2], in experiment [10], in experiment [3], in experiment [4] and in experiment [5] was > 100 µM throughout. Besides, the TGI in experiment [6], in experiment [7] and in [8] was > 100 µM each time.
For `Cc1c2ccncc2c(C)c2c1[nH]c1ccc(O)c(OCC(F)(F)F)c12`, the TGI in [1] turned out to be 18.1 µM; in experiment [2], 19.6 µM; in experiment [10], 19.9 µM; in [3] it was 5.78 µM; in experiment [5], 7.5 µM; in [6], 20.9 µM. The TGI was determined as 19.7 µM in experiment [7], 19.2 µM in experiment [8] and 25 µM in [9].
Consider `CCOC(=O)C1(Cc2ccc3ccccc3c2)CCCCC(=O)N1` (stereo not given), for which the TGI was > 100 µM in [1]; > 100 µM in [2]; 82.2 µM in experiment [10]; > 100 µM in experiment [3]; > 100 µM in [4]; > 100 µM in experiment [6]. The TGI in experiment [7], in [8] and in [9] was > 100 µM in each case.
Consider `C=C1C2Oc3ccccc3C1N(c1ccccc1)O2` (stereo not given), for which the TGI in [1], in experiment [2], in experiment [10], in [3], in [4] and in experiment [6] was > 100 µM throughout. Besides, the TGI in [7] is 67.1 µM; in [8], > 100 µM; in experiment [9], > 100 µM.
As to `CN(C)C(=S)Nc1nnc(Nc2ccccc2)s1`, the TGI in [1], in [2], in experiment [10], in [3], in [4] and in [5] was > 100 µM each time. Also, the TGI in experiment [6], in [7] and in [8] was > 100 µM each time.
Take `Nc1ccccc1C(=O)C(Br)C(Br)c1ccc2c(c1)OCO2` (stereo not given): the TGI in experiment [1] was > 100 µM; in experiment [10], 45.1 µM; in experiment [3] it was > 100 µM; in experiment [4], 51 µM; in [6] it was 51 µM; in [7], 41.3 µM. Besides, the values for the TGI in experiment [8] and in experiment [9] were > 100 µM and 72.7 µM, respectively.
Consider `O=C1/C(=C/c2cccc([N+](=O)[O-])c2)Sc2scc(-c3ccc([N+](=O)[O-])cc3)[n+]21`, for which the TGI was 53.6 µM in experiment [1]; 51.5 µM in experiment [2]; 24.1 µM in experiment [10]; 38.3 µM in experiment [3]; 49.9 µM in [4]; > 100 µM in [5]. The TGI in [6] is 38.3 µM; in experiment [7] it was > 100 µM; in experiment [8], > 100 µM.
As for `COc1cc(C2c3cc4c(cc3[C@@H](Nc3ccc5c(c3)OCCO5)C3COC(=O)[C@H]23)OCO4)cc(OC)c1O` (stereo not given in full), the TGI was determined as 16.6 µM in [1]; 2.42 µM in [2]; 12.9 µM in experiment [10]; 3.11 µM in [3]; 1.75 µM in experiment [5]; 1.31 µM in [6]. For the same compound, the TGI in experiment [7] is 5.08 µM; in experiment [8], > 79.1 µM; in experiment [9], 11.6 µM.
`O=C1CNS(=O)(=O)N1`: the TGI in [1], in experiment [2], in experiment [10], in [3], in experiment [6] and in experiment [7] was > 100 µM each time. Besides, the TGI in experiment [8] and in experiment [9] was > 100 µM throughout.
For the compound `CN1c2ccccc2SC2C(c3ccccc3)=NOC21` (stereo not given), the TGI in [1], in experiment [2], in experiment [10], in experiment [3], in [4] and in experiment [6] was > 100 µM each time. In addition, the TGI in experiment [7] was > 100 µM; in [8] it was > 100 µM; in experiment [9] it was 80 µM.
With `O=S1CSSC1`, the TGI in experiment [1] is 54.9 µM; in [2] it was 77.4 µM; in experiment [10], 34.7 µM; in experiment [3] it was 47 µM; in experiment [4] it was 94.9 µM; in [6], 98.6 µM. The TGI was 55.8 µM in experiment [7], 31.7 µM in experiment [8] and > 100 µM in experiment [9].
For the compound `Cc1c(C(=O)/C=C/c2ccccc2[N+](=O)[O-])[n+](=O)c2ccccc2n1[O-]`, the TGI in experiment [1] was found to be 29.9 µM; in experiment [2], 15.7 µM; in [10] it was 33 µM; in experiment [3], 17.8 µM; in [4], 24.2 µM; in experiment [5], 24.4 µM. The TGI in experiment [6] amounted to 32.2 µM; in experiment [7], 23.1 µM; in experiment [8], 17.5 µM.
`N#CC(C#N)=c1c2nsnc2c(=C(C#N)C#N)c2nsnc12`: the TGI in [2] amounted to 3.53 µM; in experiment [10] it was 3.87 µM; in [3] it was 17.9 µM; in experiment [4], 3.23 µM; in [6], 3.59 µM; in experiment [7], 3.54 µM. In addition, the results for the TGI in [8] and in experiment [9] were 3.05 µM and 31.3 µM, respectively.
As for `CCOC(=O)c1c(SCCN2CCOCC2)n(-c2ccccc2)c(=S)n(-c2ccccc2)c1=O`, the TGI is > 100 µM in experiment [1]; > 100 µM in experiment [10]; 46 µM in experiment [3]; > 100 µM in [4]; 90.1 µM in experiment [5]; > 100 µM in [7]. The TGI is 41.6 µM in [8] and > 100 µM in experiment [9].
For `O=C(CC1(O)C(=O)Nc2c(Cl)ccc(Cl)c21)c1ccc(Cl)cc1Cl` (stereo not given), the TGI in [1] is 35.4 µM; in experiment [2], 64.2 µM; in [10], 37.1 µM; in experiment [3] it was 27.8 µM; in [4], 30.5 µM; in experiment [6] it was 59.5 µM. The figures for the TGI in [7], in [8] and in experiment [9] were 25.9 µM, 56.6 µM and > 100 µM, respectively.
As for `O=C1C2=C(CCC2)Nc2cccc3ncn1c23`, the TGI in experiment [1], in experiment [10], in experiment [3], in [4], in experiment [5] and in [8] was > 100 µM in each case. For the same compound, in experiment [9], the TGI stood at 75.7 µM.

Source of the values: PubChem BioAssay (NCI).
